Where two headings read alike, the source gives them in different places.
Experiments:
PI3Kβ = biological target: T1, PI3Kβ (Homo sapiens, UniProt P42338); experiment: In vitro test of enzyme activity (ADP-Glo lipokinase), PI3K beta; format: biochemical; conditions: 40 μM ATP, 50 μM PIP2:3PS, 120 min
T1 construct: purchased Promega V1751
Protocol: (§1) 1. In Vitro Test of Enzyme Activity
(§2) The lipokinase reaction was carried out under the conditions of a suitable substrate and ATP, followed by two steps to detect the kinase activity with the ADP-Glo™ kit. The first step was terminating the kinase reaction, wherein the remaining ATP was completely removed and only ADP was left; the second step was adding kinase detection reagents to convert ADP to ATP, accompanied by luciferin/luciferase reaction. Finally, the output value of fluorescence value was converted into kinase activity.
(§3) Experimental materials and equipments:
(§4) 2. Kit: ADP-Glo™ Lipokinase and PIP2:3PS Kit (Promega # V1792)
(§5) The kit contains: 1 mM PIP2:3PS, 10× lipid dilution buffer, 1 M magnesium chloride, 10 mM ATP, 10 mM ADP, ADP-Glo reagent, detection buffer and detection substrate.
(§6) 3. Reaction plate: OptiPlate-384, white and transparent (PerkinElmer #6007299).
(§7) 1. 10× reaction buffer: 500 mM HEPES, pH 7.5, 500 mM NaCl, 9 mM MgCl2; BSA: 10% stock solution, homemade.
(§8) 2. Final test system conditions: 1× reaction system: 50 mM HEPES, 50 mM NaCl, 3 mM MgCl2, 0.01% BSA (freshly prepared on the day of the experiment), 1% DMSO (v/v)+/−compound
(§9) 3. Reaction system: 3 μL mixture of the enzyme and the substrate (1:1)+2 μL ATP/MgCl2 mixture+5 μL ADP-Glo reagent+10 μL detection reagent.
(§10) The detailed experimental procedures are as follows:
(§11) 1. Compound dilution: 50 nL 100×compound/DMSO was transferred to the test well plate with Echo. • For PI3Kα, the compound was diluted three-fold from the highest concentration of 0.111 mM for a total of 10 concentrations. • For PI3Kβ/PI3Kδ/PI3Kγ, the compound was three-fold diluted from the highest concentration of 1.11 mM for a total of 10 concentrations.
(§12) (1) The compound to be tested was prepared and 50 nL of 100 plus compound solution or DMSO was added to the corresponding well plate.
(§13) (2) 3.33 plate reaction buffer was prepared.
(§14) (3) 3.33 solution PIP2:3PS was prepared, PIP2:3PS was thawed for at least 1 minute before use.
(§15) (4) 2.5 mM containing 5.25 mM MgCl2 was prepared.
(§16) (5) 3.33 PI3Kα/PI3Kβ/PI3Kδ/PI3Kγ solution was prepared.
(§17) (6) The lipokinase solution and the PIP2:3PS solution were mixed in a volume ratio of 1:1.
(§18) (7) 3.33: lipokinase buffer and PIP2:3PS solution were mixed in a volume ratio of 1:1.
(§19) (8) 3 μL of buffer solution and PIP2:3PS were added to the first and the second columns of the well plate.
(§20) (9) 3 μL of the mixed solution of the enzyme and PIP2:3PS was added to the wells except the first and the second columns, centrifuged for 10 seconds (1000 rpm) and incubated at 23° C. for 20 minutes.
(§21) (10) 2 μL […] was added and well was shaken.
(§22) (11) The well plate was covered and shaken for about 30 s, then the well plate was incubated at 23° C. for 2 hours.
(§23) (12) 5 μL of ADP-Glo reagent containing 10 mM MgCl2 was added.
(§24) (13) The well plate was centrifuged at 1000 rpm for 10 seconds, and the well plate was then covered, shaken for about 30 seconds, and incubated at 23° C. for 60 minutes.
(§25) (14) 10 μL kinase detection reagent was added.
(§26) (15) The well plate was centrifuged at 1000 rpm for 10 seconds, and then incubated at 23° C. for 60 minutes.
(§27) (16) The fluorescence value was measured on the Envision instrument.

PI3Kα = biological target: T2, PI3Kα (Homo sapiens, UniProt P42336); experiment: In vitro test of enzyme activity (ADP-Glo lipokinase), PI3K alpha; format: biochemical; conditions: 40 μM ATP, 50 μM PIP2:3PS, 120 min
T2 construct: purchased Millipore 14-602-K
Protocol: as §1, §2, §3, §4, §5, §6, §7, §8, §9, §10, §11, §12, §13, §14, §15, §16, §17, §18, §19, §20, §21, §22, §23, §24, §25, §26, §27

[1] = tested on: phosphorylation of PI3K downstream protein Akt in MCF7 cells; experiment: In vitro test of cells activity: ELISA of Akt phosphorylation in MCF7 cells; format: cell-based; conditions: 2 h compound, insulin 10 μg/mL stimulation, pAkt ELISA, read-out: MCF7 Cell IC50
Protocol: 2. In vitro test of cells activity
By the method of ELISA, the inhibition level of the test compound on the phosphorylation of PI3K downstream protein Akt in the signaling pathway was determined in MCF7 cells line to reflect the cells activity of the compound.
Cell culture medium: complete cell culture medium (RPMI 1640+10% serum+1% L-glutamine+1% double antibody)
Serum-free medium (without serum, RPMI 1640+1% L-glutamine+1% double antibody)
The detailed procedures areas follows:
(1) MCF7 cells (ATCC® HTB-22™) were inoculated into a 96-well plate at 100 μL of cell complete medium per well (2.5*10^4 cells per well), and the cells were incubated at 37° C. and 5% CO2 for 24 hours.
(2) The complete cell culture medium was replaced with 100 μL of serum-free medium, and incubated for starvation overnight.
(3) The compound was prepared (The initial concentration of the compound is 1 mM, which was subjected to a three-fold dilution in 10 concentrations, and the compound of each concentration was then diluted 100-fold with serum-free medium). 25 μL of the diluted compound was added to the cells orifice plate.
(4) The cells were incubated at 37° C. and 5% CO2 for 2 hours.
(5) The cells in the well plate were stimulated with 10 μg/mL insulin (Sigma # I9278-5 mL), incubated for 30 minutes, and then centrifuged at 1000 rpm for 5 minutes at room temperature.
(6) 250 μL of 1× balanced salt solution (Invitrogen, #14065-056, 4° C., containing 1 mM/L Na3VO4) was added to each well to wash the cells once.
(7) 100 μL of lysis buffer (trimethylolaminomethane hydrochloride, Invitrogen, #15567-1000 ml) was added to each well, shaken at 4° C. for 60 minutes, and then centrifuged at 4000 rpm for 4 minutes.
(8) The following procedures were carried out according to the instructions of ELISA kit (TGR BioSciences # EKT002).

PI3Kγ = biological target: T3, PI3Kγ (Homo sapiens, UniProt P48736); experiment: In vitro test of enzyme activity (ADP-Glo lipokinase), PI3K gamma; format: biochemical; conditions: 25 μM ATP, 50 μM PIP2:3PS, 120 min
T3 construct: purchased Millipore 14-558-K
Protocol: as §1, §2, §3, §4, §5, §6, §7, §8, §9, §10, §11, §12, §13, §14, §15, §16, §17, §18, §19, §20, §21, §22, §23, §24, §25, §26, §27

PI3Kδ = biological target: T4, PI3Kδ (Homo sapiens, UniProt O00329); experiment: In vitro test of enzyme activity (ADP-Glo lipokinase), PI3K delta; format: biochemical; conditions: 40 μM ATP, 50 μM PIP2:3PS, 120 min
T4 construct: purchased Millipore 14-604-K
Protocol: as §1, §2, §3, §4, §5, §6, §7, §8, §9, §10, §11, §12, §13, §14, §15, §16, §17, §18, §19, §20, §21, §22, §23, §24, §25, §26, §27

T2 sequence (P42336 whole entry): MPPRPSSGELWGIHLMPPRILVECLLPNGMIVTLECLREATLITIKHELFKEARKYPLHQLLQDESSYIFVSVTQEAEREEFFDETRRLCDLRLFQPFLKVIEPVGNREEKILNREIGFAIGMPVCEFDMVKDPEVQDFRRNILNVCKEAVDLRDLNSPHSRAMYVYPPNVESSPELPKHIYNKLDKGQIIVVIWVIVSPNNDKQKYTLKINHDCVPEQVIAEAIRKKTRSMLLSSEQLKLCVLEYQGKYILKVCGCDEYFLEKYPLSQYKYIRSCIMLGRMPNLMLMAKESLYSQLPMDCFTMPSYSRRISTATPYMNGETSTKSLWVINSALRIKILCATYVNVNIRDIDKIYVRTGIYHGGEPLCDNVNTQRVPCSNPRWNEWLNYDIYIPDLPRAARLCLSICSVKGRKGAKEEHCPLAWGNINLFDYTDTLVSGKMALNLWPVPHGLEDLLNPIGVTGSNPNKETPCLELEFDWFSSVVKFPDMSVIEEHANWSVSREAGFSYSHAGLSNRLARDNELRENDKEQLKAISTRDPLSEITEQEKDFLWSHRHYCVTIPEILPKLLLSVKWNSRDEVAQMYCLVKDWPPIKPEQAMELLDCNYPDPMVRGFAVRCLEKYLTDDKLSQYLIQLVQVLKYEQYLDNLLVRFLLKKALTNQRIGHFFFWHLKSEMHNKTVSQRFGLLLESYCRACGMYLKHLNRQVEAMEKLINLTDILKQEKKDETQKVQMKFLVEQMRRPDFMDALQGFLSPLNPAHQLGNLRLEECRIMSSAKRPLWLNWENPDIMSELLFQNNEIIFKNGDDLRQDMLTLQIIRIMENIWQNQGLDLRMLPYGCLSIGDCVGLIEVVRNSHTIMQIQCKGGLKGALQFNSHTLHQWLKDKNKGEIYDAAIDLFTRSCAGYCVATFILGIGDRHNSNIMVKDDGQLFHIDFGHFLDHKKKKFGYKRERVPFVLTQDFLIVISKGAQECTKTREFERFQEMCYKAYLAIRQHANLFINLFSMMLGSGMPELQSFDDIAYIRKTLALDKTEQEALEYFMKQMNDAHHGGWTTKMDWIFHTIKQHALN
T2 sequence (P27986 whole entry partner): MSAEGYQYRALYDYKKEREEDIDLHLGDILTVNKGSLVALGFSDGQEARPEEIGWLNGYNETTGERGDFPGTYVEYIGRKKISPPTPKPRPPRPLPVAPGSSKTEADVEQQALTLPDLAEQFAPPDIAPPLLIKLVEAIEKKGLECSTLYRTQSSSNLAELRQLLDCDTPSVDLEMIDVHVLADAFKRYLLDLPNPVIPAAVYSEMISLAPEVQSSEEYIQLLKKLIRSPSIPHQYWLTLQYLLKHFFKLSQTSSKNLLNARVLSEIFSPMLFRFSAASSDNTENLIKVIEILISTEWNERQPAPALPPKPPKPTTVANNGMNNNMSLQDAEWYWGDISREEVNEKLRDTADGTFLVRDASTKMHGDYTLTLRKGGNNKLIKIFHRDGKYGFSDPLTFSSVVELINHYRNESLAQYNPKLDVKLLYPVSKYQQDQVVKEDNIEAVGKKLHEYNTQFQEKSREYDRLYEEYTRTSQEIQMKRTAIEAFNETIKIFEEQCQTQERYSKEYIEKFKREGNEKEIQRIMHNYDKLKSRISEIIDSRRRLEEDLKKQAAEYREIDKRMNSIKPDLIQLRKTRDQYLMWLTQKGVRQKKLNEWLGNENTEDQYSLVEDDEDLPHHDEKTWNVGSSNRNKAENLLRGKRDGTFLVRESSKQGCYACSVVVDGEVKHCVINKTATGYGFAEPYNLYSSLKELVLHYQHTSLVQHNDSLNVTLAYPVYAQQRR
T3 sequence (P48736 whole entry): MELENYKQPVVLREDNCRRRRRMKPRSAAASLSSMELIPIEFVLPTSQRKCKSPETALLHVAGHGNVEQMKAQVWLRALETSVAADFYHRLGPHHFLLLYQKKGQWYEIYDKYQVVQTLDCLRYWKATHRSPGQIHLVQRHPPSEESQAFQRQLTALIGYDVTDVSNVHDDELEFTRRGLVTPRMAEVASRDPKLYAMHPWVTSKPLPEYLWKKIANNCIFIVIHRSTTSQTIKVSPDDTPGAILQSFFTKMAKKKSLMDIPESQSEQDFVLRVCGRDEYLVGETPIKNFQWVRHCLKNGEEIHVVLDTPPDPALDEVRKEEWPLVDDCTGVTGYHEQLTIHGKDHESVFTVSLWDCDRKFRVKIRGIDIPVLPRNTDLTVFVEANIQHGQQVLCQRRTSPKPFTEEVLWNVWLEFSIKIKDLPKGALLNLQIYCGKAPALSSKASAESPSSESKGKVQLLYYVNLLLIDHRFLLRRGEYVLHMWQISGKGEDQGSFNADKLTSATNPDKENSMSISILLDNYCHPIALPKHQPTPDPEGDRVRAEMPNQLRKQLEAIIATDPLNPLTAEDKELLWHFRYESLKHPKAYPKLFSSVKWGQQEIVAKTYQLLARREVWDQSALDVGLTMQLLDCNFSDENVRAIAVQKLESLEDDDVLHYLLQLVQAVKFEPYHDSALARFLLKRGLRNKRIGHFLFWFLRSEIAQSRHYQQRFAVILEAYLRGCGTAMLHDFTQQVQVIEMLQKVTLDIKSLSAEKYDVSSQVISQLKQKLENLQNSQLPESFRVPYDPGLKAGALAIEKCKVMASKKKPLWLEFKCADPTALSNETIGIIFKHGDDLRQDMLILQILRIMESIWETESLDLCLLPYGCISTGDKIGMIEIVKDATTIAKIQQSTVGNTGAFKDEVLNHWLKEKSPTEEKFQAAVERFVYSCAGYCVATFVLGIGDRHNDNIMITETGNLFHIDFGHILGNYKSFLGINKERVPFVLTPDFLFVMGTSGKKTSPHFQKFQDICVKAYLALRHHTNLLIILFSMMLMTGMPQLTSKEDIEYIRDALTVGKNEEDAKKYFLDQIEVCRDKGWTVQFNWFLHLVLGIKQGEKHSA
T4 sequence (O00329 whole entry): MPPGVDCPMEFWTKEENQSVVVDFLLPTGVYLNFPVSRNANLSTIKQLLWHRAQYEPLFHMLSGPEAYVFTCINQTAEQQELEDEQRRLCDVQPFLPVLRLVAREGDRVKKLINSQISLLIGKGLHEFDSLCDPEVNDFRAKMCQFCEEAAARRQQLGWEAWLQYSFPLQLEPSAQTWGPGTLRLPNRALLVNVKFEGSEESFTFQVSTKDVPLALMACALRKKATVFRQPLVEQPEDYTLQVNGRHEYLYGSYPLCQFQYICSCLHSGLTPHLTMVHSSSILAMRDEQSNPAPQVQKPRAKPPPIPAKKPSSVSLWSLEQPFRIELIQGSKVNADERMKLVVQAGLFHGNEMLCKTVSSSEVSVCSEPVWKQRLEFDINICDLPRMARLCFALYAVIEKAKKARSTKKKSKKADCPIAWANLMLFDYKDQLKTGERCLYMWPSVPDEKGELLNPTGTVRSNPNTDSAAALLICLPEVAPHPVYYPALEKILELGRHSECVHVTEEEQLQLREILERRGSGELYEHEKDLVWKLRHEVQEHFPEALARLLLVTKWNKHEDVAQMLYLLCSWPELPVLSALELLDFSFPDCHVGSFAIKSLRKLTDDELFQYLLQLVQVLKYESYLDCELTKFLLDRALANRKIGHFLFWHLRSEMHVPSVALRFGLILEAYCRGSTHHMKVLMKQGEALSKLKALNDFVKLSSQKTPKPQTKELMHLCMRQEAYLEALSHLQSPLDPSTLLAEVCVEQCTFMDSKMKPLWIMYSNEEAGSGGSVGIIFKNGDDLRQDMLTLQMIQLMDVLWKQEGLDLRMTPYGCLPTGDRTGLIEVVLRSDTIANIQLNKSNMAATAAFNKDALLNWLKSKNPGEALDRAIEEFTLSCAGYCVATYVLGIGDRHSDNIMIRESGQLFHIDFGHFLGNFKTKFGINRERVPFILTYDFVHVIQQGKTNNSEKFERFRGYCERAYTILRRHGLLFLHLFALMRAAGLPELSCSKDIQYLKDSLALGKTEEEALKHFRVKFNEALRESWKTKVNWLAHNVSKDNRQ
T4 sequence (P27986 whole entry partner): as the sequence (P27986 whole entry partner) above
T1 sequence (P42338 whole entry): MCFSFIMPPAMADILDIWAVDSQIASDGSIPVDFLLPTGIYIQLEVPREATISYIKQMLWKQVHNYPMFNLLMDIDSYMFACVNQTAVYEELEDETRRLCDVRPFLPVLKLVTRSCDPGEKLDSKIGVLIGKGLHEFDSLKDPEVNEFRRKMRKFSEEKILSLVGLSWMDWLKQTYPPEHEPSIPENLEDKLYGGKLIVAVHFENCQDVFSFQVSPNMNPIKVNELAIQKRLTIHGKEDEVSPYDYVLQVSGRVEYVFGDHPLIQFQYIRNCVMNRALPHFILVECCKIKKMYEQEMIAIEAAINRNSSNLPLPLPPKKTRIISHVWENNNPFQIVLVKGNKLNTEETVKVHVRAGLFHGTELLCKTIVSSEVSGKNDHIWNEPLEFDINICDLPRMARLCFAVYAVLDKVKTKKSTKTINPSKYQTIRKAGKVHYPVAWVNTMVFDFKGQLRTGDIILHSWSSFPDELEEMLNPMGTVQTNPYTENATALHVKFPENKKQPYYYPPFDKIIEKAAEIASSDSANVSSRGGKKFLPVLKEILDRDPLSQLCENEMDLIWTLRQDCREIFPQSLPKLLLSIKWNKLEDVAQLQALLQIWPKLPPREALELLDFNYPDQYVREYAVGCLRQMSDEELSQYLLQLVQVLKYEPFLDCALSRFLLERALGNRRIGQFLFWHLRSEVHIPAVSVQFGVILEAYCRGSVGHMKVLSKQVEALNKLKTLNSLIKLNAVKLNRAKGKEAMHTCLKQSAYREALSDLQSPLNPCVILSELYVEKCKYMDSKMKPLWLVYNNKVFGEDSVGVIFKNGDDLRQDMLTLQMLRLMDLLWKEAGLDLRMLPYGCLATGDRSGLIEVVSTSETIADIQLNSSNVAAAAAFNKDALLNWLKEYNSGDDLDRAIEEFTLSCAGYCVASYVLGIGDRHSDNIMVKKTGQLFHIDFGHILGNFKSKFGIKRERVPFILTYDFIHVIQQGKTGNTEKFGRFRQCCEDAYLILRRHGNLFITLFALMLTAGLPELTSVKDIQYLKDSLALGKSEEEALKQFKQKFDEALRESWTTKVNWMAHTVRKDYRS
T1 sequence (P27986 whole entry partner): as the sequence (P27986 whole entry partner) above

Structure (SMILES)	IC50 (PI3Kβ) [nM]	IC50 (PI3Kα) [nM]	IC50 [1] [nM]	IC50 (PI3Kγ) [nM]	IC50 (PI3Kδ) [nM]	IC50 ([1]; Homo sapiens, MCF7, 2 h) [nM]
COc1ncc(-c2ccc3ncn(CC(C)C(=O)O)c(=O)c3c2)cc1NS(=O)(=O)c1ccc(F)cc1Cl (single isomer, unassigned) [R002, reference compound]	1060	13.6	628	20.4	122	–
COc1ncc(-c2ccc3ncn(CCC(N)=O)c(=O)c3c2)cc1NS(=O)(=O)c1ccc(F)cc1Cl [WX001]	68.5	1.16	–	4.57	3.88	16.8
CNC(=O)C(C)Cn1cnc2ccc(-c3cnc(OC)c(NS(=O)(=O)c4ccc(C)cc4C)c3)cc2c1=O (single isomer, unassigned) [WX091]	537	5.11	5.7	97.3	26.2	–
COc1ncc(-c2ccc3ncn(CC(C)C(=O)O)c(=O)c3c2)cc1NS(=O)(=O)c1ccc(F)cc1Cl (single isomer, unassigned) [R003, reference compound]	426	7.16	–	5.29	85	318
CCC(Cn1cnc2ccc(-c3cnc(OC)c(NS(=O)(=O)c4ccc(F)cc4Cl)c3)cc2c1=O)C(N)=O (stereo not shown) [WX021]	133	6.89	–	–	–	52.3
CNC(=O)[C@H]1C[C@H](n2cnc3ccc(-c4cnc(C)c(NS(=O)(=O)c5ccc(F)cc5Cl)c4)cc3c2=O)C1 [WX013]	95.9	1.22	–	15.2	5.25	209
CCC(Cn1cnc2ccc(-c3cnc(OC)c(NS(=O)(=O)c4ccc(F)cc4Cl)c3)cc2c1=O)C(=O)NC (single isomer, unassigned) [WX108]	415	13.9	96.5	–	–	–
CNC(=O)C(C)Cn1cnc2ccc(-c3cnc(OC(F)(F)F)c(NS(=O)(=O)c4ccc(F)cc4Cl)c3)cc2c1=O (stereo not shown) [WX127]	2160	22.8	–	–	–	> 1000
COc1ncc(-c2ccc3ncn(CC4(C(N)=O)CC4)c(=O)c3c2)cc1NS(=O)(=O)c1ccc(F)cc1Cl [WX023]	82.4	5.71	–	20.6	2.02	39.9
COc1ncc(-c2ccc3ncn(CC(N)C(N)=O)c(=O)c3c2)cc1NS(=O)(=O)c1ccc(F)cc1Cl (stereo not shown) [WX040]	183	5.4	–	39.9	25.6	134
CNC(=O)C(C)Cn1cnc2c(F)cc(-c3cnc(OC)c(NS(=O)(=O)c4ccc(F)cc4Cl)c3)cc2c1=O (single isomer, unassigned) [WX105]	1150	10.5	193	29.2	41.1	–
COCCNC(=O)C(C)Cn1cnc2ccc(-c3cnc(OC)c(NS(=O)(=O)c4ccc(F)cc4Cl)c3)cc2c1=O (single isomer, unassigned) [WX065]	1120	4.9	72	45.2	29.7	–
CNC(=O)[C@@H]1CCC[C@H]1Cn1cnc2ccc(-c3cnc(OC)c(NS(=O)(=O)c4ccc(F)cc4Cl)c3)cc2c1=O (single isomer, unassigned) [WX196]	1770	41	395	–	–	–
Cc1nc(C)c(S(=O)(=O)Nc2cc(-c3ccc4ncn(CCCC(=O)NC(C)C)c(=O)c4c3)cnc2C)s1 [WX006]	279	1	–	19.6	4.53	279
CNC(=O)C(C)Cn1cnc2c(F)cc(-c3cnc(OC)c(NS(=O)(=O)c4ccc(F)cc4Cl)c3)cc2c1=O (single isomer, unassigned) [WX106]	736	19.5	460	–	–	–
COc1ncc(-c2ccc3ncn(CC(C)C(N)=O)c(=O)c3c2)cc1NS(=O)(=O)c1sc(C)nc1C (single isomer, unassigned) [WX024]	19.9	0.29	71.5	2.03	0.47	–
CNC(=O)[C@@H](C)Cn1cnc2ccc(-c3cnc(OC)c(NS(=O)(=O)c4ccc(F)cc4C(F)(F)F)c3)cc2c1=O [WX194]	432	3.42	84.9	17	16.4	–
COc1ncc(-c2ccc3ncn(CC(C)C(N)=O)c(=O)c3c2)cc1NS(=O)(=O)c1sc(C)nc1C (single isomer, unassigned) [WX025]	13.2	0.41	23.9	1	0.47	–
CNC(=O)[C@@H](C)Cn1cnc2ccc(-c3cnc(OC)c(NS(=O)(=O)c4cc(F)cc(F)c4)c3)cc2c1=O [WX192]	633	5.39	53.6	37.8	37.5	–

Source: patent US20200317660A1, “Quinazolinone Compound and Application Thereof” (LUOXIN PHARMACEUTICAL (SHANGHAI) CO., LTD., priority 2017, published 2020)
